Experimental data taken from patent publication US7196110B2, “N-substituted tricyclic 3-aminopyrazoles as inhibitors for the treatment of cell proliferative disorders” (Janssen Phamaceutica N.V., priority 2002, dated 2007).

Biological target: T1, PDGF-receptor beta enzyme comprising the tyrosine kinase domain (Homo sapiens, UniProt P09619)
T1 construct: from amino acid 545 to 1106 of GenBank Access NO: AAA36427
Test: Inhibition of PDGF-receptor kinase activity (cell-free, PLC1 peptide, 33P Flashplate)
Type: biochemical
Conditions: PDGF-R kinase activity; for inhibition at 10 µM: compound at 10 uM, read-out: Percent Inhibition @ 10 uM; for IC50: read-out: IC50
Procedure, shortened: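 The IC50 is the inhibitor level halving kinase activity relative to inhibitor-free wells, measured as 33P captured on a streptavidin-bound biotin-PLC1 peptide. The reaction ran 60 min at 30 °C in pH 8 Tris buffer with 1 mM DTT, 5 μM ATP and the 545–1106 kinase-domain enzyme.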

T1 sequence (P09619 545-1106): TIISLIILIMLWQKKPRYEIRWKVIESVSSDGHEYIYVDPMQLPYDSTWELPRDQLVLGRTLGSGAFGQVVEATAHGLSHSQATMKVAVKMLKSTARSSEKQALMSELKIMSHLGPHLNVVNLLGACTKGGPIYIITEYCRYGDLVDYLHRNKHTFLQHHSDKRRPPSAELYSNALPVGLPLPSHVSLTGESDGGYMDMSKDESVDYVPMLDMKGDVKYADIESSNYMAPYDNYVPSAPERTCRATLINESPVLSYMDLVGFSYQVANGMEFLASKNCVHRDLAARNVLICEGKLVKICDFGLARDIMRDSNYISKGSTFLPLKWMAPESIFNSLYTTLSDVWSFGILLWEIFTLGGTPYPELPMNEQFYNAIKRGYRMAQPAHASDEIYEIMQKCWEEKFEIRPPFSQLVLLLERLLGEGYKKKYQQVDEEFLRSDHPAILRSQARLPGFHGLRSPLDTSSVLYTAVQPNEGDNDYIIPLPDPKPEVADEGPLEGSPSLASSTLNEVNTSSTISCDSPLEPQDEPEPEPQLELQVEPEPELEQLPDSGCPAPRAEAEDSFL

inhibition at 10 µM | IC50 | SMILES
57.5% | 2610 nM | COc1ccc(OC)c(CNc2[nH]nc3c2Cc2cc(OC)c(OC)cc2-3)c1 [Compound 274, (2,5-Dimethoxy-benzyl)-(6,7-dimethoxy-2,4-dihydro-indeno[1,2-c]pyrazol-3-yl)-amine]
80.5% | 501 nM | COc1cc2c(cc1OC)-c1n[nH]c(NCc3ccc(F)c(F)c3)c1C2 [Compound 275, (3,4-Difluoro-benzyl)-(6,7-dimethoxy-2,4-dihydro-indeno[1,2-c]pyrazol-3-yl)-amine]
11% | 287 nM | COc1cc2c(cc1OC)-c1n[nH]c(Nc3ccc(F)c([N+](=O)[O-])c3)c1C2 [Compound 276, (6,7-Dimethoxy-2,4-dihydro-indeno[1,2-c]pyrazol-3-yl)-(4-fluoro-3-nitro-phenyl)-amine]
88% | 1360 nM | COc1ccc(Nc2[nH]nc3c2Cc2cc(OC)c(OC)cc2-3)cc1Cl [Compound 277, (3-Chloro-4-methoxy-phenyl)-(6,7-dimethoxy-2,4-dihydro-indeno[1,2-c]pyrazol-3-yl)-amine]
97% | 29.5 nM | COc1cc2c(cc1OC)-c1n[nH]c(Nc3cccc(C(C)O)c3)c1C2 (stereo not drawn) [Compound 278, 1-[3-(6,7-Dimethoxy-2,4-dihydro-indeno[1,2-c]pyrazol-3-ylamino)-phenyl]-ethanol]
19.5% | 203000 nM | COc1cc2c(cc1OC)-c1n[nH]c(Nc3cc(C(C)(C)C)cc(C(C)(C)C)c3)c1C2 [Compound 279, (3,5-Di-tert-butyl-phenyl)-(6,7-dimethoxy-2,4-dihydro-indeno[1,2-c]pyrazol-3-yl)-amine]
18.5% | 2.78 nM | COCCCOc1cc2c(cc1OCCCOC)-c1n[nH]c(Nc3cccc(Cl)c3)c1C2 [Compound 285, [6,7-Bis-(3-methoxy-propoxy)-2,4-dihydroindeno[1,2-c]pyrazol-3-yl]-(3-chloro-phenyl)-amine]
88.5% | 219 nM | COc1ccc(Nc2[nH]nc3c2Cc2cc(F)ccc2-3)cc1Cl [Compound 288, (3-Chloro-4-methoxy-phenyl)-(6-fluoro-2,4-dihydro-indeno[1,2-c]pyrazol-3-yl)-amine]
87.5% | 61.4 nM | Fc1ccc2c(c1)Cc1c-2n[nH]c1Nc1ccc2[nH]ccc2c1 [Compound 290, (6-Fluoro-2,4-dihydro-indeno[1,2-c]pyrazol-3-yl)-(1H-indol-5-yl)-amine]
95% | 205 nM | COc1cc2c(cc1OCc1ccccc1)Cc1c-2n[nH]c1Nc1cccc(F)c1 [Compound 291, (6-Benzyloxy-7-methoxy-2,4-dihydro-indeno[1,2-c]pyrazol-3-yl)-(3-fluoro-phenyl)-amine]
96.5% | 69.2 nM | CCOc1cc2c(cc1OCC)-c1n[nH]c(NCc3ccccc3F)c1C2 [Compound 293, (6,7-Diethoxy-2,4-dihydro-indeno[1,2-c]pyrazol-3-yl)-(2-fluoro-benzyl)-amine]
81% | 264 nM | CCOc1cc2c(cc1OCC)-c1n[nH]c(NCc3cccc(F)c3)c1C2 [Compound 294, (6,7-Diethoxy-2,4-dihydro-indeno[1,2-c]pyrazol-3-yl)-(3-fluoro-benzyl)-amine]
81.5% | 1.65 nM | CCOc1cc2c(cc1OCC)-c1n[nH]c(NCc3c(Cl)cccc3Cl)c1C2 [Compound 295, (2,6-Dichloro-benzyl)-(6,7-diethoxy-2,4-dihydro-indeno[1,2-c]pyrazol-3-yl)-amine]
72.5% | 1820 nM | CCOc1cc2c(cc1OCC)-c1n[nH]c(NCc3ccccc3OC)c1C2 [Compound 296, (6,7-Diethoxy-2,4-dihydro-indeno[1,2-c]pyrazol-3-yl)-(2-methoxy-benzyl)-amine]
90.5% | 275 nM | COc1cc2c(cc1OC)-c1n[nH]c(Nc3cccc(C(=O)NCCO)c3)c1C2 [Compound 297, 3-(6,7-Dimethoxy-2,4-dihydro-indeno[1,2-c]pyrazol-3-ylamino)-N-(2-hydroxy-ethyl)-benzamide]
92% | 408 nM | COc1cc2c(cc1OC)-c1n[nH]c(Nc3cccc(C(=O)NCCCN4CCCC4)c3)c1C2 [Compound 298, 3-(6,7-Dimethoxy-2,4-dihydro-indeno[1,2-c]pyrazol-3-ylamino)-N-(3-pyrrolidin-1-yl-propyl)-benzamide]
40% | – | COc1cc2c(cc1OC)C(c1ccccc1)c1c-2n[nH]c1Nc1ccccc1 (stereo not drawn) [Compound 300, (6,7-Dimethoxy-4-phenyl-2,4-dihydro-indeno[1,2-c]pyrazol-3-yl)-phenyl-amine]
72% | – | CCOc1cc2c(cc1OCC)-c1n[nH]c(NCc3ccccc3OC(F)(F)F)c1C2 [Compound 301, (6,7-Diethoxy-2,4-dihydro-indeno[1,2-c]pyrazol-3-yl)-(2-trifluoromethoxy-benzyl)-amine]

inhibition at 10 µM | IC50 | SMILES
47% | – | COc1cc2c(cc1OC)C(c1ccccc1)c1c-2n[nH]c1Nc1cccc(F)c1 (stereo not drawn) [Compound 302, (6,7-Dimethoxy-4-phenyl-2,4-dihydro-indeno[1,2-c]pyrazol-3-yl)-(3-fluoro-phenyl)-amine]
50% | 9340 nM | CC(C)(C)c1cc(Nc2[nH]nc3c2Cc2cc(F)ccc2-3)cc(C(C)(C)C)c1 [Compound 303, (3,5-Di-tert-butyl-phenyl)-(6-fluoro-2,4-dihydro-indeno[1,2-c]pyrazol-3-yl)-amine]
38% | 3460 nM | Fc1ccc2c(c1)Cc1c-2n[nH]c1NCc1cc(Cl)cc(Cl)c1 [Compound 304, (3,5-Dichloro-benzyl)-(6-fluoro-2,4-dihydro-indeno[1,2-c]pyrazol-3-yl)-amine]
87% | 458 nM | Cc1cccc(CNc2[nH]nc3c2Cc2cc(F)ccc2-3)c1 [Compound 305, (6-Fluoro-2,4-dihydro-indeno[1,2-c]pyrazol-3-yl)-(3-methyl-benzyl)-amine]
47.5% | 8590 nM | Cc1ccc(CNc2[nH]nc3c2Cc2cc(F)ccc2-3)cc1Cl [Compound 306, (3-Chloro-4-methyl-benzyl)-(6-fluoro-2,4-dihydroindeno[1,2-c]pyrazol-3-yl)-amine]
59% | 3400 nM | COc1ccc(OC)c(CNc2[nH]nc3c2Cc2cc(F)ccc2-3)c1 [Compound 307, (2,5-Dimethoxy-benzyl)-(6-fluoro-2,4-dihydro-indeno[1,2-c]pyrazol-3-yl)-amine]
14% | 511 nM | Fc1ccc2c(c1)Cc1c-2n[nH]c1NCc1ccc(F)c(F)c1 [Compound 308, (3,4-Difluoro-benzyl)-(6-fluoro-2,4-dihydro-indeno[1,2-c]pyrazol-3-yl)-amine]
68.5% | 74.8 nM | Cc1ccc2c(c1)-c1n[nH]c(Nc3ccc4[nH]ccc4c3)c1C2 [Compound 311, (1H-Indol-5-yl)-(7-methyl-2,4-dihydro-indeno[1,2-c]pyrazol-3-yl)-amine]
56.5% | 5670 nM | Cc1ccc2c(c1)-c1n[nH]c(Nc3cc(C(C)(C)C)cc(C(C)(C)C)c3)c1C2 [Compound 312, (3,5-Di-tert-butyl-phenyl)-(7-methyl-2,4-dihydro-indeno[1,2-c]pyrazol-3-yl)-amine]
62.5% | 3500 nM | Cc1ccc2c(c1)-c1n[nH]c(NCc3cc(Cl)cc(Cl)c3)c1C2 [Compound 313, (3,5-Dichloro-benzyl)-(7-methyl-2,4-dihydro-indeno[1,2-c]pyrazol-3-yl)-amine]
76% | 894 nM | Cc1cccc(CNc2[nH]nc3c2Cc2ccc(C)cc2-3)c1 [Compound 314, (3-Methyl-benzyl)-(7-methyl-2,4-dihydro-indeno[1,2-c]pyrazol-3-yl)-amine]
17.5% | 1920 nM | Cc1ccc2c(c1)-c1n[nH]c(NCc3ccc(C)c(Cl)c3)c1C2 [Compound 315, (3-Chloro-4-methyl-benzyl)-(7-methyl-2,4-dihydro-indeno[1,2-c]pyrazol-3-yl)-amine]
66% | 4910 nM | COc1ccc(OC)c(CNc2[nH]nc3c2Cc2ccc(C)cc2-3)c1 [Compound 316, (2,5-Dimethoxy-benzyl)-(7-methyl-2,4-dihydro-indeno[1,2-c]pyrazol-3-yl)-amine]
79% | 1250 nM | Cc1ccc2c(c1)-c1n[nH]c(NCc3ccc(F)c(F)c3)c1C2 [Compound 317, (3,4-Difluoro-benzyl)-(7-methyl-2,4-dihydro-indeno[1,2-c]pyrazol-3-yl)-amine]
23% | 34400 nM | c1ccc(Nc2[nH]nc3c2CCOc2ccccc2-3)cc1 [Compound 318, (4,5-Dihydro-2H-6-oxa-1,2-diaza-benzo[e]azulen-3-yl)-phenyl-amine]
80.5% | 2200 nM | COc1cc2c(cc1OC)-c1n[nH]c(Nc3cccc(C(=O)N4CCN(C)CC4)c3)c1C2 [Compound 319, [3-(6,7-Dimethoxy-2,4-dihydro-indeno[1,2-c]pyrazol-3-ylamino)-phenyl]-(4-methyl-piperazin-1-yl)-methanone]
70.5% | 1960 nM | COc1cc2c(cc1OC)-c1n[nH]c(NCc3ccc(C)c(C)c3)c1C2 [Compound 320, (6,7-Dimethoxy-2,4-dihydro-indeno[1,2-c]pyrazol-3-yl)-(3,4-dimethyl-benzyl)-amine]
77% | 7.45 nM | COc1cc2c(cc1OC)-c1n[nH]c(NCc3c(F)cccc3F)c1C2 [Compound 321, (2,6-Difluoro-benzyl)-(6,7-dimethoxy-2,4-dihydro-indeno[1,2-c]pyrazol-3-yl)-amine]
